Read-outs that look alike come from different tables or passages of the source.
Legend:
[1] = target: recombinant human EGFR L858R/C797S double mutant protein (Homo sapiens (Human), UniProt P00533, C797S/L858R); experiment: Biological Activity Assay B: biochemical assay against EGFR L858R/C797S protein (EGFR LR/CS)
Outline: (§1)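 Compounds were tested as 16-point serial dilutions (final DMSO 2.5%) with a Phosphosens peptide sensor/ATP working solution (40 uM/4 mM). The signal was read kinetically over 90 cycles at 120 s intervals. IC50s came from 4-parameter fits of per-well slopes.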

[2] = target: recombinant human EGFR exon 19 deletion/C797S double mutant protein (Homo sapiens (Human), UniProt P00533, C797S/DEL746-750); experiment: Biological Activity Assay C: biochemical assay against EGFR exon 19 deletion/C797S protein (EGFR d19/CS)
recombinant human EGFR exon 19 deletion/C797S double mutant protein, sequence (P00533 other isoform, or with tags, fused parts or gaps C797S/del 1-668/del 746-750 limits assumed): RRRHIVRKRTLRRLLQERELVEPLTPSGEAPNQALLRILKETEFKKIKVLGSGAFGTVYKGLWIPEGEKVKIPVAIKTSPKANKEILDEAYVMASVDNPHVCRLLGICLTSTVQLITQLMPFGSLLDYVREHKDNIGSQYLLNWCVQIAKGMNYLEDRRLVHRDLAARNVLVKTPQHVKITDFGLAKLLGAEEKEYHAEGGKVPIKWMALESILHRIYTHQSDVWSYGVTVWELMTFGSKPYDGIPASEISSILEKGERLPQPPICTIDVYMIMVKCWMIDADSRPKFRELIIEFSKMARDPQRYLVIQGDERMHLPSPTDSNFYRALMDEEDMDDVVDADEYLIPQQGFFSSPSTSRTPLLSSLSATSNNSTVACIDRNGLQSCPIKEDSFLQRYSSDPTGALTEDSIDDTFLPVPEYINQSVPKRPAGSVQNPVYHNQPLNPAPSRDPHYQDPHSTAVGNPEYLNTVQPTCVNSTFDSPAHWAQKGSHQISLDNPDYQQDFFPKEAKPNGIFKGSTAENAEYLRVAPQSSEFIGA
Outline: as §1

BaF3_EGFR d19/CS cells = experiment: Biological Activity Assay D: BaF3 cell proliferation assay, EGFR exon 19 deletion/C797S (BaF3 d19/CS); format: cell-based; conditions: Ba/F3 EGFR, read-out: BaF3 d19/CS IC50
Ba/F3_EGFR WT cells = experiment: Biological Activity Assay D: BaF3 cell proliferation assay, EGFR wild-type (BaF3 WT); format: cell-based; conditions: Ba/F3 EGFR, read-out: BaF3 WT IC50
BaF3_EGFR LR/CS cells = experiment: Biological Activity Assay D: BaF3 cell proliferation assay, EGFR L858R/C797S mutant (BaF3 LR/CS); format: cell-based; conditions: Ba/F3 EGFR, read-out: BaF3 LR/CS IC50
[3] = BaF3_EGFR d19/CS cells, ~72 hours, CellTiter-Glo
[4] = Ba/F3_EGFR WT cells, ~72 hours, CellTiter-Glo
[5] = BaF3_EGFR LR/CS cells, ~72 hours, CellTiter-Glo

recombinant human EGFR L858R/C797S double mutant protein, sequence (P00533 25-1210 C797S/L858R): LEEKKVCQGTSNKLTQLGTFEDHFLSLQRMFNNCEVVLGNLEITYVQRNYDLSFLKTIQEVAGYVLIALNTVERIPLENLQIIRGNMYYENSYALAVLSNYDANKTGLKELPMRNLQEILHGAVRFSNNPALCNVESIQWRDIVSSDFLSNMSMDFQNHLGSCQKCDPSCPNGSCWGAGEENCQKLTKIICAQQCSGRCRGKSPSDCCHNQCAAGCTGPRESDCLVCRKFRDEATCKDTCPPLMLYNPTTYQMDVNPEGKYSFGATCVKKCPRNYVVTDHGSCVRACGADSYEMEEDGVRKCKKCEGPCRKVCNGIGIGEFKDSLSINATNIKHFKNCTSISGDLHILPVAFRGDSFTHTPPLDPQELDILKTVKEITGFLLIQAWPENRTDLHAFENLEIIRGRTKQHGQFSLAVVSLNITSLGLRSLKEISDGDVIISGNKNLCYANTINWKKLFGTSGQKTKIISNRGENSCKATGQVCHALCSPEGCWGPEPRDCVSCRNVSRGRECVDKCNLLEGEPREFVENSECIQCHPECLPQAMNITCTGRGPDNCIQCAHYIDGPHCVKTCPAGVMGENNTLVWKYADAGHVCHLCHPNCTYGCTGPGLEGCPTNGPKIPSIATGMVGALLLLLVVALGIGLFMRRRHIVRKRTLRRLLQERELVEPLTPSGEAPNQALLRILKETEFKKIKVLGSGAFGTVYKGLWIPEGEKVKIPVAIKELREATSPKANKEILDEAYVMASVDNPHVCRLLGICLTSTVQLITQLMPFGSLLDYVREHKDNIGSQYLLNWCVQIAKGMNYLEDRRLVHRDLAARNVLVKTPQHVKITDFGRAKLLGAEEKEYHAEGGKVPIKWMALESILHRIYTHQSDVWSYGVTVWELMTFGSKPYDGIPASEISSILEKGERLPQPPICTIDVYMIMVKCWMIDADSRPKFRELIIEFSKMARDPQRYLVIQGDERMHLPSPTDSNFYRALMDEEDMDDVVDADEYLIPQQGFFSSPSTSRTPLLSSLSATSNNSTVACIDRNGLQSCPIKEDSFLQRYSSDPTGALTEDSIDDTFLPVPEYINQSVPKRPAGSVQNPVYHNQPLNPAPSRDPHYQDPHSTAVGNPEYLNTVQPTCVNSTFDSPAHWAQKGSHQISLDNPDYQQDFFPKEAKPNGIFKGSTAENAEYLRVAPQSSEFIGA

| SMILES | IC50 [1] [nM] | IC50 [2] [nM] | IC50 (BaF3_EGFR d19/CS cells; [3]) [nM] | IC50 (Ba/F3_EGFR WT cells; [4]) [nM] | IC50 (BaF3_EGFR LR/CS cells; [5]) [nM] | IC50 (BaF3_EGFR d19/CS cells; 72 h) [nM] | IC50 (Ba/F3_EGFR WT cells; 72 h) [nM] | IC50 (BaF3_EGFR LR/CS cells; 72 h) [nM] |
| --- | --- | --- | --- | --- | --- | --- | --- | --- |
| O=S1(=O)CC(n2cc(-c3ncnc4oc(-c5ccccc5)cc34)c(-c3ccc(F)cc3)n2)C1 [Example 40, 3-[3-(4-Fluorophenyl)-4-(6-phenylfuro[2,3-d]pyrimidin-4-yl)-1H-pyrazol-1-yl]-1λ6-thietane-1,1-dione] | 0.327 | 0.192 | 22 | 2100 | 36.4 | – | – | – |
| OCCn1cc(-c2ncnc3oc(-c4ccccc4)cc23)c(-c2ccc(F)cc2)n1 [Example 94, 2-[3-(4-Fluorophenyl)-4-(6-phenylfuro[2,3-d]pyrimidin-4-yl)-1H-pyrazol-1-yl]ethan-1-ol] | 0.17 | 0.11 | – | – | – | 27.4 | 1120 | 22.4 |
| CN1CCN(c2ccc(-c3cc4c(-c5nn(CCCO)nc5-c5ccc(F)cc5)ccnc4[nH]3)cc2)CC1 [Example 18, 3-[4-(4-Fluorophenyl)-5-{2-[4-(4-methylpiperazin-1-yl)phenyl]-1H-pyrrolo[2,3-b]pyridin-4-yl}-2H-1,2,3-triazol-2-yl]propan-1-ol] | 0.141 | 0.0926 | 1.83 | 71.4 | 2.06 | – | – | – |
| OCCCn1cc(-c2ncnc3[nH]c(-c4ccccc4)nc23)c(-c2ccc(F)cc2)n1 [Example 6, 3-[3-(4-Fluorophenyl)-4-(8-phenyl-9H-purin-6-yl)-1H-pyrazol-1-yl]propan-1-ol] | 0.253 | 0.148 | 5.81 | 1100 | 4.4 | – | – | – |
| CN1CCN(c2ccc(-c3cc4c(-c5oc(CCCO)nc5-c5ccc(F)cc5)ccnc4[nH]3)cc2)CC1 [Example 29, 3-[4-(4-Fluorophenyl)-5-{2-[4-(4-methylpiperazin-1-yl)phenyl]-1H-pyrrolo[2,3-b]pyridin-4-yl}-1,3-oxazol-2-yl]propan-1-ol] | 0.111 | 0.0769 | 1.22 | 88.4 | 1.29 | – | – | – |
| NC(=O)CCc1nc(-c2ccc(F)cc2)c(-c2ncnc3oc(-c4ccccc4)cc23)o1 [Example 49, 3-[4-(4-fluorophenyl)-5-(6-phenylfuro[2,3-d]pyrimidin-4-yl)-1,3-oxazol-2-yl]propanamide] | 3.42 | 1.77 | 250 | 20000 | 132 | – | – | – |
| CN1CCN(c2ccc(-c3nc4c(-c5cn(CCCO)nc5-c5ccc(F)cc5)ccnc4[nH]3)cc2)CC1 [Example 13, 3-[3-(4-Fluorophenyl)-4-{2-[4-(4-methylpiperazin-1-yl)phenyl]-3H-imidazo[4,5-b]pyridin-7-yl}-1H-pyrazol-1-yl]propan-1-ol] | 0.272 | 0.173 | 3.71 | 255 | 4.1 | – | – | – |
| OCCCCn1nc(-c2ccc(F)cc2)c(-c2ncnc3[nH]c(-c4ccccc4)nc23)n1 [Example 28, 4-[4-(4-fluorophenyl)-5-(8-phenyl-9H-purin-6-yl)-2H-1,2,3-triazol-2-yl]butan-1-ol] | 10.8 | 4.16 | 885 | 17800 | 493 | – | – | – |
| Fc1ccc(-c2nn(CC3COC3)cc2-c2ncnc3oc(-c4ccccc4)cc23)cc1 [Example 47, 4-{3-(4-Fluorophenyl)-1-[(oxetan-3-yl)methyl]-1H-pyrazol-4-yl}-6-phenylfuro[2,3-d]pyrimidine] | 0.594 | 0.473 | 72.5 | 4530 | 92.5 | – | – | – |
| OCCCn1cc(-c2ncnc3oc(-c4ccccc4)nc23)c(-c2ccc(F)cc2)n1 [Example 5, 3-[3-(4-Fluorophenyl)-4-(2-phenyl[1,3]oxazolo[5,4-d]pyrimidin-7-yl)-1H-pyrazol-1-yl]propan-1-ol] | 1.2 | 0.45 | 90.6 | 2430 | 80.3 | – | – | – |
| N#CCCCn1cc(-c2ncnc3oc(-c4ccccc4)cc23)c(-c2ccc(F)cc2)n1 [Example 116, 4-[3-(4-Fluorophenyl)-4-(6-phenylfuro[2,3-d]pyrimidin-4-yl)-1H-pyrazol-1-yl]butanenitrile] | 0.37 | 0.23 | – | – | – | 47.6 | 1510 | 22.9 |
| CN1CCN(c2ccc(-c3nc4c(-c5cn(CCCO)nc5-c5ccc(F)cc5)ncnc4[nH]3)cc2)CC1 [Example 15, 3-[3-(4-Fluorophenyl)-4-{8-[4-(4-methylpiperazin-1-yl)phenyl]-9H-purin-6-yl}-1H-pyrazol-1-yl]propan-1-ol] | 0.27 | 0.207 | 0.949 | 64.7 | 1.02 | – | – | – |

The next lines start with results.

| IC50 [1] [nM] | IC50 [2] [nM] | IC50 (BaF3_EGFR d19/CS cells; [3]) [nM] | IC50 (Ba/F3_EGFR WT cells; [4]) [nM] | IC50 (BaF3_EGFR LR/CS cells; [5]) [nM] | SMILES | IC50 (BaF3_EGFR d19/CS cells; 72 h) [nM] | IC50 (Ba/F3_EGFR WT cells; 72 h) [nM] | IC50 (BaF3_EGFR LR/CS cells; 72 h) [nM] |
| --- | --- | --- | --- | --- | --- | --- | --- | --- |
| 0.635 | 1.02 | 59.1 | 2080 | 241 | CN(C)S(=O)(=O)CCn1cc(-c2ncnc3oc(-c4ccccc4)cc23)c(-c2ccc(F)cc2)n1 [Example 50, 2-[3-(4-fluorophenyl)-4-(6-phenylfuro[2,3-d]pyrimidin-4-yl)-1H-pyrazol-1-yl]-N,N-dimethylethane-1-sulfonamide] | – | – | – |
| 0.75 | 0.32 | 95.2 | 2090 | 116 | CC(C)(O)Cn1cc(-c2ncnc3oc(-c4ccccc4)cc23)c(-c2cccc(F)c2)n1 [Example 95, 1-[3-(3-Fluorophenyl)-4-(6-phenylfuro[2,3-d]pyrimidin-4-yl)-1H-pyrazol-1-yl]-2-methylpropan-2-ol] | – | – | – |
| 1.25 | 1.62 | 151 | 2620 | 84.1 | FCCCCn1cc(-c2ncnc3oc(-c4ccccc4)cc23)c(-c2ccc(F)cc2)n1 [Example 71, 4-[1-(4-fluorobutyl)-3-(4-fluorophenyl)-1H-pyrazol-4-yl]-6-phenylfuro[2,3-d]pyrimidine] | – | – | – |
| 0.45 | 0.38 | 64.7 | 1020 | 55.7 | NC(=O)Cn1cc(-c2ncnc3oc(-c4ccccc4)cc23)c(-c2ccc(F)cc2)n1 [Example 106, 2-[3-(4-Fluorophenyl)-4-(6-phenylfuro[2,3-d]pyrimidin-4-yl)-1H-pyrazol-1-yl]acetamide] | – | – | – |
| 0.51 | 0.24 | 64.9 | 1510 | 36.2 | Fc1ccc(-c2nn([C@@H]3CCOC3)cc2-c2ncnc3oc(-c4ccccc4)cc23)cc1 (single isomer, unassigned) [Example 90] | – | – | – |
| 0.7 | 0.34 | 50.9 | 1340 | 35.5 | Fc1ccc(-c2nn(CC(F)F)cc2-c2ncnc3oc(-c4ccccc4)cc23)cc1 [Example 119, 4-[1-(2,2-Difluoroethyl)-3-(4-fluorophenyl)-1H-pyrazol-4-yl]-6-phenylfuro[2,3-d]pyrimidine] | – | – | – |
| 12.9 | 12.5 | 1150 | 7150 | 741 | O=S1(=O)CC(Cn2ncc(-c3ncnc4oc(-c5ccccc5)cc34)c2-c2ccc(F)cc2)C1 [Example 112, 3-((5-(4-fluorophenyl)-4-(6-phenylfuro[2,3-d]pyrimidin-4-yl)-1H-pyrazol-1-yl)methyl)thietane 1,1-dioxide] | – | – | – |
| 1.56 | 1.34 | 196 | 2810 | 140 | CS(=O)(=O)CCn1nc(-c2ccc(F)cc2)c(-c2ncnc3oc(-c4ccccc4)cc23)n1 [Example 87, 4-{5-(4-fluorophenyl)-2-[2-(methanesulfonyl)ethyl]-2H-1,2,3-triazol-4-yl}-6-phenylfuro[2,3-d]pyrimidine] | – | – | – |
| 9.83 | 6.94 | 314 | 3370 | 610 | Fc1ccc(-c2nn(C(F)F)cc2-c2ncnc3oc(-c4ccccc4)cc23)cc1 [Example 107, 4-[1-(difluoromethyl)-3-(4-fluorophenyl)-1H-pyrazol-4-yl]-6-phenylfuro[2,3-d]pyrimidine] | – | – | – |
| 1.59 | 0.45 | 105 | 1520 | 130 | CC(=O)N1CC=C(c2cc3c(-c4cn(C5CS(=O)(=O)C5)nc4-c4ccc(F)cc4)ncnc3o2)CC1 [Example 108, 3-{4-[6-(1-Acetyl-1,2,3,6-tetrahydropyridin-4-yl)furo[2,3-d]pyrimidin-4-yl]-3-(4-fluorophenyl)-1H-pyrazol-1-yl}-1λ6-thietane-1,1-dione] | – | – | – |
| 0.48 | 0.37 | 18.4 | 2730 | 23.2 | OCC(F)(F)Cn1cc(-c2ncnc3oc(-c4ccccc4)cc23)c(-c2ccc(F)cc2)n1 [Example 78, 2,2-Difluoro-3-[3-(4-fluorophenyl)-4-(6-phenylfuro[2,3-d]pyrimidin-4-yl)-1H-pyrazol-1-yl]propan-1-ol] | – | – | – |
| 0.95 | 0.84 | 255 | 6220 | 231 | CC(=O)N1CCC(n2cc(-c3ncnc4oc(-c5ccccc5)cc34)c(-c3ccc(F)cc3)n2)C1 (stereo not drawn) [Example 92, 1-{3-[3-(4-fluorophenyl)-4-(6-phenylfuro[2,3-d]pyrimidin-4-yl)-1H-pyrazol-1-yl]pyrrolidin-1-yl}ethan-1-one] | – | – | – |

Source: US20250034159A1, “INHIBITORS OF EPIDERMAL GROWTH FACTOR RECEPTOR” (ORIC Pharmaceuticals, Inc., priority 2021, published 2025)
